In patent publication US20210047291A1, “PESTICIDALLY ACTIVE HETEROCYCLIC DERIVATIVES WITH SULFUR CONTAINING SUBSTITUENTS” (SYNGENTA PARTICIPATIONS AG, priority 2018, published 2021):

What was measured:
Type in all cases: in vivo
[1] = tested on: Euschistus heros (Neotropical Brown Stink Bug); test: Example B3: Euschistus heros, soybean leaves, N2 nymphs; conditions: for percent effect (mortality or growth inhibition) at 200 ppm: Euschistus heros, 120 h, application rate of 200 ppm, N2 nymphs, 5 days after infestation, read-out: effect in at least one of the two categories (mortality or growth inhibition); for mortality at 50 ppm: Concentration 50 ppm, Euschistus heros (Example B3), read-out: Mortality (%)
Protocol: Soybean leaves on agar in 24-well microtiter plates were sprayed with aqueous test solutions prepared from 10,000 ppm DMSO stock solutions. After drying the leaves were infested with N2 nymphs. The samples were assessed for mortality and growth inhibition in comparison to untreated samples 5 days after infestation.

[2] = tested on: Myzus persicae (Green peach aphid); test: Example B5: Myzus persicae feeding/contact activity, sunflower leaf discs; conditions: foliar; for mortality at 200 ppm: Myzus persicae, 144 h, application rate of 200 ppm, mixed ages, 6 days after infestation, read-out: mortality; for mortality at 12.5 ppm: Concentration 12.5 ppm, Myzus persicae (feeding/contact, Example B5), read-out: Mortality (%)
Protocol: Sunflower leaf discs were placed onto agar in a 24-well microtiter plate and sprayed with aqueous test solutions prepared from 10,000 ppm DMSO stock solutions. After drying, the leaf discs were infested with an aphid population of mixed ages. The samples were assessed for mortality 6 days after infestation.

Melodoigyne incognita = test: Example B14: Melodoigyne incognita juvenile mobility, in vitro profiling in 96 well plate; conditions: 200 ppm; after 24 h; second stage juveniles; read-out: control (juvenile mobility)
Protocol: Test solutions are prepared from 10,000 ppm DMSO stock solutions with a TECAN robot to achieve 20 μL of 1000, 200, 100, 50, 25 and 12.5 ppm. For each concentration three replicates are produced. Per well, 80 μL nematode solution is added containing 100 to 150 freshly harvested second stage juveniles of Melodoigyne incognita. The plates are covered and stored at room temperature in the dark and incubated for 24 h. Mobility of the exposed juveniles in a treated well is measured using an imaging tool and compared to an average of 12 untreated replicates.

[3] = tested on: Myzus persicae (Green peach aphid); test: Example B6: Myzus persicae systemic activity, pea seedlings; conditions: for mortality at 1.5 ppm: Concentration 1.5 ppm, Myzus persicae (systemic, Example B6), read-out: Mortality (%); for mortality at 24 ppm: Myzus persicae, 144 h, test rate of 24 ppm, mixed ages, 6 days after placing seedlings into test solutions, read-out: mortality
Protocol: Roots of pea seedlings infested with an aphid population of mixed ages were placed directly into aqueous test solutions prepared from 10,000 DMSO stock solutions. The samples were assessed for mortality 6 days after placing seedlings into test solutions.

[4] = tested on: Diabrotica Balteata (Corn Root Worm); test: Example B2: Diabrotica balteata, maize sprouts, L2 larvae; conditions: for percent effect (mortality or growth inhibition) at 200 ppm: Diabrotica balteata, 96 h, application rate of 200 ppm, L2 larvae, 4 days after infestation, read-out: effect in at least one of the two categories (mortality or growth inhibition)
Protocol: Maize sprouts placed onto an agar layer in 24-well microtiter plates were treated with aqueous test solutions prepared from 10,000 ppm DMSO stock solutions by spraying. After drying, the plates were infested with L2 larvae (6 to 10 per well). The samples were assessed for mortality and growth inhibition in comparison to untreated samples 4 days after infestation.

Compound | percent effect (mortality or growth inhibition) at 200 ppm [1] [%] | mortality at 200 ppm [2] [%] | pest or weed control at 200 ppm (Melodoigyne incognita) [%] | mortality at 1.5 ppm [3] [%] | mortality at 24 ppm [3] [%] | mortality at 50 ppm [1] [%] | mortality at 12.5 ppm [2] [%] | Mortality (%) ([4]; Concentration 200 ppm, Diabrotica balteata (Example B2)) | percent effect (mortality or growth inhibition) at 200 ppm [4] [%]
CCS(=O)(=O)c1cc(N(C)C(=O)CCSC)cnc1-c1nc2cc(C(F)(F)F)ncc2n1C [P41, N-[5-ethylsulfonyl-6-[3-methyl-6-(trifluoromethyl)imidazo[4,5-c]pyridin-2-yl]-3-pyridyl]-N-methyl-3-methylsulfanyl-propanamide] | ≥ 80 | ≥ 80 | ≥ 80 |  |  |  |  |  | 
CCS(=O)(=O)c1cc(NC(=O)C2CC2)cnc1-c1nc2cc(C(F)(F)F)cnc2n1C [reference compound] |  |  |  | 0 |  |  |  |  | 
CCS(=O)(=O)c1cc(N2CCOCC2=O)cnc1-c1nc2cc(C(F)(F)F)ncc2n1C [P15, 4-[5-ethylsulfonyl-6-[3-methyl-6-(trifluoromethyl)imidazo[4,5-c]pyridin-2-yl]-3-pyridyl]morpholin-3-one] | ≥ 80 | ≥ 80 | ≥ 80 |  | ≥ 80 |  |  |  | 
CCS(=O)(=O)c1cc(N2CCN(C)C2=O)cnc1-c1nc2cc(C(F)(F)F)ncc2n1C [P37, 1-[5-ethylsulfonyl-6-[3-methyl-6-(trifluoromethyl)imidazo[4,5-c]pyridin-2-yl]-3-pyridyl]-3-methyl-imidazolidin-2-one] | ≥ 80 | ≥ 80 | ≥ 80 | 100 | ≥ 80 | 100 | 90 |  | 
CCSc1cc(N(C)C(C)=O)cnc1-c1nc2cc(C(F)(F)F)ncc2n1C [P33, N-[5-ethylsulfanyl-6-[3-methyl-6-(trifluoromethyl)imidazo[4,5-c]pyridin-2-yl]-3-pyridyl]-N-methyl-acetamide] | ≥ 80 | ≥ 80 |  |  |  |  |  |  | 
CCS(=O)(=O)c1cc(-n2ccccc2=O)cnc1-c1nc2cc(C(F)(F)F)ncc2n1C [reference compound] |  |  |  | 0 |  | 50 | 0 |  | 
CCS(=O)(=O)c1cc(N2CCNC2=O)cnc1-c1nc2cc(C(F)(F)F)ncc2n1C [P36, 1-[5-ethylsulfonyl-6-[3-methyl-6-(trifluoromethyl)imidazo[4,5-c]pyridin-2-yl]-3-pyridyl]imidazolidin-2-one] | ≥ 80 | ≥ 80 | ≥ 80 | 100 | ≥ 80 | 100 | 90 |  | 
CCS(=O)(=O)c1cc(NC(=O)C(C)(C)C)cnc1-c1nc2cc(C(F)(F)F)ncc2n1C [P39, N-[5-ethylsulfonyl-6-[3-methyl-6-(trifluoromethyl)imidazo[4,5-c]pyridin-2-yl]-3-pyridyl]-2,2-dimethyl-propanamide] | ≥ 80 | ≥ 80 | ≥ 80 |  | ≥ 80 |  |  |  | 
CCS(=O)(=O)c1cc(NC(C)=O)cnc1-c1nc2cc(C(F)(F)F)ncc2n1C [drawing 155, reference compound] |  |  |  |  |  |  |  | 0 | 
CCS(=O)(=O)c1cc(NC(=O)C(F)(F)F)cnc1-c1nc2cc(C(F)(F)F)ncc2n1C [P44, N-[5-ethylsulfonyl-6-[3-methyl-6-(trifluoromethyl)imidazo[4,5-c]pyridin-2-yl]-3-pyridyl]-2,2,2-trifluoro-acetamide] | ≥ 80 | ≥ 80 | ≥ 80 |  |  |  |  |  | ≥ 80
CCS(=O)(=O)c1cc(NC(=O)C(C)(C)O)cnc1-c1nc2cc(C(F)(F)F)ncc2n1C [P8, N-[5-ethylsulfonyl-6-[3-methyl-6-(trifluoromethyl)imidazo[4,5-c]pyridin-2-yl]-3-pyridyl]-2-hydroxy-2-methyl-propanamide] | ≥ 80 | ≥ 80 |  |  | ≥ 80 |  |  |  | 
CCS(=O)(=O)c1cc(N(C)C(C)=O)ccc1-c1nc2cc(C(F)(F)F)ncc2n1C [P16, N-[3-ethylsulfonyl-4-[3-methyl-6-(trifluoromethyl)imidazo[4,5-c]pyridin-2-yl]phenyl]-N-methyl-acetamide] | ≥ 80 | ≥ 80 |  |  | ≥ 80 |  |  |  | 
CCS(=O)(=O)c1cc(N(C)C(=O)CCS(C)(=O)=O)cnc1-c1nc2cc(C(F)(F)F)ncc2n1C [P31, N-[5-ethylsulfonyl-6-[3-methyl-6-(trifluoromethyl)imidazo[4,5-c]pyridin-2-yl]-3-pyridyl]-N-methyl-3-methylsulfonyl-propanamide] | ≥ 80 | ≥ 80 |  |  |  |  |  |  | 
CCS(=O)(=O)c1cc(N(C)C(=O)CC(F)(F)F)cnc1-c1nc2cc(C(F)(F)F)ncc2n1C [P28, N-[5-ethylsulfonyl-6-[3-methyl-6-(trifluoromethyl)imidazo[4,5-c]pyridin-2-yl]-3-pyridyl]-3,3,3-trifluoro-N-methyl-propanamide] | ≥ 80 | ≥ 80 |  |  | ≥ 80 |  |  |  | ≥ 80
CCS(=O)(=O)c1cc(N2CCS(=O)(=O)CC2=O)cnc1-c1nc2cc(C(F)(F)F)ncc2n1C [P18, 4-[5-ethylsulfonyl-6-[3-methyl-6-(trifluoromethyl)imidazo[4,5-c]pyridin-2-yl]-3-pyridyl]-1,1-dioxo-1,4-thiazinan-3-one] | ≥ 80 |  |  |  |  |  |  |  | 
CCSc1cc(N(C(C)=O)C(C)C)cnc1-c1nc2cc(C(F)(F)F)ncc2n1C [P47, N-[5-ethylsulfanyl-6-[3-methyl-6-(trifluoromethyl)imidazo[4,5-c]pyridin-2-yl]-3-pyridyl]-N-isopropyl-acetamide] | ≥ 80 |  |  |  |  |  |  |  | 
CCC(=O)N(CC(F)(F)F)c1cnc(-c2nc3cc(C(F)(F)F)ncc3n2C)c(S(=O)(=O)CC)c1 [P32, N-[5-ethylsulfonyl-6-[3-methyl-6-(trifluoromethyl)imidazo[4,5-c]pyridin-2-yl]-3-pyridyl]-N-(2,2,2-trifluoroethyl)propanamide] | ≥ 80 | ≥ 80 |  |  | ≥ 80 |  |  |  | ≥ 80
CCS(=O)(=O)c1ccc(N2CCN(C)C2=O)nc1-c1nc2cc(C(F)(F)F)ncc2n1C [reference compound] |  |  |  | 0 |  | 50 | 80 |  | 
CCN(C(=O)CCl)c1cnc(-c2nc3cc(C(F)(F)F)ncc3n2C)c(S(=O)(=O)CC)c1 [P20, 2-chloro-N-ethyl-N-[5-ethylsulfonyl-6-[3-methyl-6-(trifluoromethyl)imidazo[4,5-c]pyridin-2-yl]-3-pyridyl]acetamide] | ≥ 80 | ≥ 80 | ≥ 80 |  | ≥ 80 |  |  |  | ≥ 80
